This note sets out measurements from a melting point compilation (Tetko et al.; mined from patent text by program, amines drawn as free bases though some values may be those of a salt).

In general, melting point refers to the temperature, or range, at which the solid turns liquid.

In turn, `COC(=O)[C@@H]1C[C@H](OC(=O)c2cc3ccccc3o2)C(=O)[C@H]2[C@@]1(C)CC[C@H]1C(=O)O[C@H](c3ccoc3)C[C@]21C` registered a melting point of 226 to 227 °C.
Regarding `O=C1NC(=O)C2(N1)C(=O)N(Cc1ccc(Cl)c(Cl)c1)c1ccc([N+](=O)[O-])cc12` (centres undefined), the melting point fell in the range of 245 to 246 °C.
Then `Cc1nc2n(c1C)N=C(c1ccc(N)cc1)c1cc3c(cc1C2)OCO3`, with 226 to 227 °C; and `COc1cc2c(cc1O)C(OC)CN(Cc1cc(OC)c(OC)c(OC)c1)C2` (centres undefined), with 51 to 54 °C; and `CCOC(=O)NNc1ccc(-c2ccc(Br)cc2)nn1`, with 190 to 192 °C.
Then `O=c1c(CCCCCc2cccnc2)cc2cccnc2n1-c1cccc([N+](=O)[O-])c1`, with 155 °C; and `COc1cc(OC)c(-c2cccs2)cc1/C=C/C(=O)c1ccc(S(=O)(=O)Nc2ccc(F)cn2)cc1`, with 194 to 195 °C; and `CCCCCCCCCCCCC1=C(OC(=O)OC)C(=O)c2ccccc2C1=O`, with 70 to 72 °C.
Then `CC1(C)Oc2c([N+](=O)[O-])ccc(Cl)c2C1Br` (centres undefined), with 103 to 104 °C; and `Cc1ccc(OCC#CI)c(Cl)n1`, with 130 to 132 °C.
In the case of `COc1ccc(CN2CCC(C(O)(c3ccc(OC(F)(F)F)cc3)c3ccc(OC(F)(F)F)cc3)CC2)cc1`, the melting point was in the range of 86 to 96 °C.
For `CN1CCN(C(=O)c2cccn2Cc2ccccc2N)CC1` the value was 139 to 141 °C; for `Cc1c(SCCCSCC2CN(C)C(=O)O2)ccnc1CNc1cnc2ccccc2c1` (centres undefined), 98 to 100 °C.
Then `Cc1cccc(C(=O)c2ccc(O)cc2)c1C`, with 155 to 158 °C; and `COc1cc(OC)c2c(C)c3n(c(=O)c2c1)CCCC3`, with 165 to 168 °C.
`COc1ccccc1CCNC(=S)Nc1nc2ccccc2[nH]1`: the melting point fell in the range of 176 to 184 °C.
Then `COc1ccc(Cc2cc(CCNS(=O)(=O)c3ccc(Cl)cc3)cc(CCC(=O)O)c2)cc1`, with 106 to 108 °C; and `Nc1nc2c(ncn2COCCCP(=O)(O)O)c(=O)[nH]1`, with 202 °C; and `Cc1cccc(N=C2NCCN2)c1C`, with 141 to 144 °C.
Then `CCOC(=O)Nc1ccc2c(c1)CCSCC2=O`, with 145 to 146 °C.
Then `COc1cccc(Oc2ccccc2C(=O)O)c1`, with 129 to 131 °C.
Take `COC(=O)c1cscc1NC(=O)COc1ccc(-c2ccccc2Cl)cn1`: the melting point was 151 to 155 °C.
Then `Cc1ccn2c(C)c(-c3ccc4sc(=O)n(C)c4c3)nc2c1`, with 204 to 206 °C; and `CCOCCn1cc2c(C3C(=O)Nc4ccc(Br)cc43)nc(NCC(C)O)nc2n1` (centres undefined), with 298 to 300 °C; and `CCOc1ccc2c(S(=O)(=O)c3ccc(OCc4ccccc4)cc3)c(C(C)C)cn2c1`, with 153 °C.
Compound `CC(=O)OC1CCC2(C)C(=CCC3C2CCC2(C)C(c4cccnc4)=CCC32)C1` (centres undefined) had a melting point of 144 to 145 °C.
Then `O=Cc1nccn1Cc1ccccc1[N+](=O)[O-]`, with 141 to 144 °C.
With `CON=CC(C)(C)NC(=O)c1c(I)cccc1C(=O)Nc1ccc(OC(C(F)(F)F)C(F)(F)F)nc1C`, the melting point was 220 °C.
For `CCOC(=O)c1nc(-c2ccccc2F)c(-c2ccc(=O)n(C(C)C)n2)s1` the value was 140 to 141 °C; for `N#CCc1cc(Cl)cc(Cc2nc3c(F)c(F)cc(F)c3s2)c1`, 114 to 117 °C.
Then `CN1C(=O)CC(c2ccc(N)cc2)C1C(O)c1ccc(-c2ccccc2)s1` (centres undefined), with 221 to 222 °C; and `O=c1cc(-c2nnn[nH]2)oc2c(/C=C/c3ccc(OCCCCc4ccc(F)cc4)cc3)cccc12`, with 174 to 175 °C; and `COCCNC(=O)c1ccc(C(=O)N2CCN(c3ncccc3NC(C)C)CC2)nc1`, with 122 to 124 °C.
In turn, `CNC(=O)COc1ccc2c(-c3ccccc3F)noc2c1Cl` displayed a melting point of 164 °C.
For `COc1ccc2c3c(c(=O)oc2c1)CN(Cc1ccc(C)cc1)CC3`, the melting point fell in the range of 147 to 149 °C.
Then `CSc1nc(O)cc(-c2cccc(C#N)c2)n1`, with > 220 °C.
On to `COc1cc(C)cc2c1C(N1CC[N+]([O-])(C(=O)Cc3ccncc3)CC1)c1ncc(Br)cc1CC2` (single isomer, unassigned; (-)), for which the melting point lay within 111 to 116 °C.
For `OCCCOc1ccc(-n2ccnc2)cc1` the value was 76 to 78 °C; for `CC(=O)Nc1cccc(/C=C/C(=O)N2CC(CCl)c3c2cc(N)c2ccccc32)c1` (centres undefined), > 250 °C; for `Cc1cccc2c1-n1cnnc1SC2`, 234 °C.
As for `Cc1nc2c(OCc3ccccc3)cc(Br)cn2c1C`, the melting point lay in the range of 151 to 153 °C.
The compound `CCOC(=O)C(=O)c1scc(Br)c1Br` came in with a melting point of 71 °C.
`O=C(O)Cc1cccc(C=C(C(=O)O)c2nc(-c3ccccc3)c(-c3ccccc3)o2)c1`: the melting point was 178 to 182 °C.
For `COC(=O)c1cc(C=O)c(NS(C)(=O)=O)c([N+](=O)[O-])c1` the value was 158 to 160 °C.
Compound `CCOC(=O)C(CCC(=O)O)(CCC(=O)O)C(=O)OCC` gave a melting point of 120 °C.
Compound `CCC1(c2cccs2)NC(=O)NC1=O` (centres undefined) displayed a melting point of 173 to 174 °C.
In turn, `COc1ccc(CN2CC(NC(=O)c3ccc(OCC=C(C)CCC=C(C)C)cc3)CN2Cc2ccc(OC)cc2)cc1` displayed a melting point of 123 to 124 °C.
As to `FC(F)(F)CSC1(c2cccc(OCc3ccc4ccccc4c3)c2)CCOCC1`, the melting point was 76 to 78 °C.
For `CCOc1ccc(-c2ccc(Cl)nn2)c(OCC2CO2)c1` (centres undefined) the value was 93 to 94 °C.
Turning to `COc1ccc(N2C(=O)O[C@H](COC(=O)c3ccc([N+](=O)[O-])cc3)[C@@H]2C)cc1`, the melting point lay in the range of 138 to 140 °C.
For `CSc1nn2c(N)cc(C3CC3)nc2c1S(=O)(=O)c1ccccc1` the value was > 230 °C; for `COc1ccc(CC2CCC3=C(C2)CC(CO)C(=O)N3)cc1` (centres undefined), 165 to 168 °C.
In turn, `CCCCNC(=O)Cc1ccc2c(c1)c(Cc1ccc(C(=O)NS(=O)(=O)c3ccccc3C)cc1OC)cn2C` showed a melting point of 108 to 110 °C.
Then `Cc1nonc1-n1cc(C(=O)O)c(=O)c2c(C)c(F)c(F)cc21`, with 200 to 202 °C; and `O/N=C(\Sc1ccccc1)C(F)(F)F`, with 64 to 66 °C.
Then `CC(=O)Nc1cccc2c(-c3ccc(=O)n(C(C)C)n3)c(-c3ccccc3)nn12`, with 92 to 96 °C; and `Cc1cccc(NC(=O)NCC(=O)N(CC(=O)OC(C)(C)C)c2ccccc2C(=O)N2CCCc3ccccc32)c1`, with 160 °C; and `CCOC(=O)C1CCCCC1Nc1cn[nH]c1` (centres undefined), with 92 to 94 °C.
Then `CC(C)(C)c1nn(-c2ccc(N)cc2Cl)c(=O)o1`, with 158 to 159 °C; and `CN(C)c1c[nH]c2ncccc12`, with 144 to 152 °C.
Consider `CC1=C(C)C(=O)N(c2ccc(Cl)c(C=C(Cl)C#N)c2)C1=O`, for which the melting point is 139 to 140 °C.
Then `FC(F)(F)c1ccc(Oc2ccc3c(c2)OCC(c2ccccc2)O3)nc1` (centres undefined), with 104 to 110 °C.
For `Cc1cccc(CC(=O)c2ccnc(-c3ccc(C=O)cc3)c2)n1` the value was 118 °C; for `Cc1cccc(Cc2ccc(-c3cnn4c(O)ncnc34)cc2)c1`, 271 to 278 °C; for `COC(=O)C=C1NC(C)(CO)COC1=O` (centres undefined), 62 to 63 °C.
For the compound `CC(C#N)c1cccc2c(-c3ccc(Cl)cc3)nccc12` (centres undefined), the melting point was in the range of 128 to 130 °C.
`CCCCCCN(CCCCCC)c1ccc(C2=C(C#N)C(=C(C#N)C#N)OC2(C)C)s1`: the melting point was 134 °C.
Then `COCOc1ccc(CCc2c(CC(N)=O)cc(OC)c(OC)c2OC)cc1OCc1ccccc1`, with 73 to 74 °C; and `CCc1c(C(=O)C(N)=O)c2c(NCC(=O)O)cccc2n1Cc1ccccc1`, with 151 to 157 °C; and `CC(C)(C)C(=O)Nc1cccc(N)n1`, with 140 to 141 °C.
For `N#Cc1ccc(N2C(=O)NC3(CCS(=O)(=O)CC3)C2=O)cc1C(F)(F)F`, the melting point is 257 to 258 °C.
Then `CCCNC(=O)c1cncs1`, with 86 °C.
Then `Cn1c(C(F)(F)F)cc(=O)n(-c2c(F)cc(Cl)c3nc(N)oc23)c1=O`, with 144 to 150 °C.
Then `Cc1ncc2c(n1)-c1ccc(Cl)cc1C(c1ccccc1Cl)=[N+]([O-])C2`, with 215 to 216 °C.
For `CCN1CCC(=O)C(C(c2ccccc2)c2ccccc2)C1` (centres undefined), the melting point lay within 54 to 58 °C.
For `Cc1nc(N2CCC(Cc3ccc(OC(F)(F)F)cc3)C2=O)sc1C(=O)NCc1ccc(F)cc1` (centres undefined) the value was 165 to 166 °C; for `Cc1ccc2cc(NC(=O)c3cccc(OCc4ccc(N)nc4)c3)ccc2n1`, 189 to 192 °C; for `Cc1ccc(O)c2c1C(C)CC2=O` (centres undefined), 52 to 53 °C.
For `N#Cc1ccc(Cc2nccc(-c3ccc(C#N)cc3)n2)cc1`, the melting point was 155 to 156 °C.
As to `CC(=O)Oc1cc(C)c(C)c(C)c1C1(OC(C)=O)C(=O)c2ccccc2C1=O`, the melting point lay within 238 to 242 °C.
The compound `COc1ccc([N+](=O)[O-])c(C=C[N+](=O)[O-])c1OCc1ccccc1` showed a melting point of 118 to 119 °C.
Compound `CC(C1CC1)C(O)(Cn1nc[nH]c1=S)c1ccc(Cl)cc1` (centres undefined) came in with a melting point of 137 °C.
`CCCN1N=C2C(=Cc3ccccc3C)CSCC2C1c1ccccc1C` (centres undefined) had a melting point of 110 to 112 °C.
For `CON(C)C(=O)c1ccc2nc(Cl)nc(-c3cccc(Cl)c3)c2c1` the value was 110 °C; for `O=C(C=Cc1cc(O)c(O)c([N+](=O)[O-])c1)c1ccccc1`, 192 to 195 °C; for `Cc1csc(C)c1C(=O)O`, 164 to 165 °C.
For `COC(=O)CCCCCCC1=CCc2cc(OC)ccc21`, the melting point lay within 30 to 31.5 °C.
Then `COc1ccc(-c2cc(C=CC(=O)O)cs2)cc1C(C)(C)C`, with 197 to 198 °C.
For `COc1cc(OC)cc(-c2ncoc2-c2ccc(OC(F)(F)F)c(O)c2)c1` the value was 192 to 194 °C.
